Reference: patent US20170066717A1, “NEW PHENYLAZETIDINECARBOXYLATE OR -CARBOXAMIDE COMPOUNDS” (INVENTIVA, priority 2014, published 2017)

Legend:
[1] = tested on: mice treated with 1-methyl-4-phenyl-1,2,3,6-tetrahydropyridine (MPTP); test: Functional activity in a model of mice treated with MPTP (striatal dopamine, TH mRNA in substantia nigra); assay type: in vivo; conditions: for action of MPTP (decrease in dopamine level in the striatum and in TH expression level in the substantia nigra): C57BL6/J mice, compound orally twice a day for 11 days, MPTP 20 mg/kg ip once a day for 5 days, FIGS. 1 and 2
Procedure: 3. Study of the Functional Activity in a Mouse Model
A third series of […] tests was carried out with the compounds according to the invention, for the purpose of verifying that the molecules indeed have the expected neuroprotective effect.
The compounds of examples 10 and 118 were tested on a model of mice treated with 1-methyl-4-phenyl-1,2,3,6-tetrahydropyridine (MPTP) in order to confirm their potential activity. MPTP is a neurotoxin which causes the permanent symptoms of Parkinson's disease by destroying the dopaminergic neurons in the substantia nigra. The following protocol: was used.
Male C57BL6/J mice, 10-12 weeks old at the beginning of the studies, were divided up into groups of 12 animals. The compounds wee administered orally, twice a day, for 11 days in total. The administration began 3 days before the treatment with the MPTP toxin at 20 mg/kg. The MPTP was administered once a day by intraperitoneal injection, for 5 days. The admistration of the compounds was continued during the 5 days of MPTP treatment and then for a further 3 days after the MPTP treatment. One group of mice received, orally, the carrier alone (solution of methylcellulose at 1%, 0.1% poloxamer). The annuals were eythanized after rhe final gavage and the striatum and the substantia nigra were removed. The dopamine was extracted from the striatum and the amount of dopamine (DA), expressed in ng per g of striatum (mean±SEM), was measured by high-performance liquid chromatography (HPLC) with electrochemical detection. The messenger RNAs were isolated from the substantia nigra, and the expression level of the mRNAs encoding tyrosine hydroxylase (TH) was measured by quantitative PCR.
The results obtained were reported in appended FIGS. 1 and 2.

[2] = target: T1, NURR-1/RXRα (Homo sapiens, UniProt P19793); test: Transactivation test, NURR-1-Gal4/RXRα, luciferase reporter in Cos-7 cells; assay type: cell-based; conditions: for Emax: COS-7, induction level relative to reference XCT0135908 at 2×10^−5 M (=100%), read-out: hNurr1_RXRaFL Emax (%); for EC50: Cos-7 cells, NURR-1-Gal4/RXRα, luciferase reporter, read-out: hNurr1_RXRaFL EC50
T1 construct: expressed in transfected cells; host or cells: Cos-7 cells

[3] = Plasma pharmacokinetics in mice after oral administration; assay type: in vivo; conditions: mouse, male C57/Bl6 mice, oral 10 mg/kg; for AUC: sampling 15 min to 7 h, log-linear trapezoidal method, read-out: AUCplasma; for Cmax: suspension in 1% methylcellulose/0.1% Poloxamer 188
In short: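 Male C57/B16 mice (25-30 g, fed, 9 per dose) received 10 mg/kg by oral gavage as a suspension in 1% methylcellulose 400 cps/0.1% Poloxamer 188/water. Plasma was sampled at 15 min, 30 min, 1 h, 3 h and 7 h and quantified by LC-MS/MS after protein precipitation. Parameters were derived non-compartmentally, with AUC by the log-linear trapezoidal method.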

[4] = tested on: dopaminergic neurons of primary culture of rat embryo mesencephalon treated with MPP+; test: Neuroprotection in primary culture of rat embryo mesencephalon treated with MPP+ (count of tyrosine hydroxylase expressing cells); assay type: cell-based; conditions: recombinant human BDNF 10 ng/mL = 100%, 2 days with MPP+
In short: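 Rat embryo (E15) mesencephalon cultures, 5 days, then MPP+ with or without compound on day 6 for 2 days. Tyrosine hydroxylase-immunolabelled cells counted by image analysis; activity expressed as percent of recombinant human BDNF (10 ng/mL) reference, set at 100%.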

T1 sequence (P19793 whole entry, the tested form may be a part): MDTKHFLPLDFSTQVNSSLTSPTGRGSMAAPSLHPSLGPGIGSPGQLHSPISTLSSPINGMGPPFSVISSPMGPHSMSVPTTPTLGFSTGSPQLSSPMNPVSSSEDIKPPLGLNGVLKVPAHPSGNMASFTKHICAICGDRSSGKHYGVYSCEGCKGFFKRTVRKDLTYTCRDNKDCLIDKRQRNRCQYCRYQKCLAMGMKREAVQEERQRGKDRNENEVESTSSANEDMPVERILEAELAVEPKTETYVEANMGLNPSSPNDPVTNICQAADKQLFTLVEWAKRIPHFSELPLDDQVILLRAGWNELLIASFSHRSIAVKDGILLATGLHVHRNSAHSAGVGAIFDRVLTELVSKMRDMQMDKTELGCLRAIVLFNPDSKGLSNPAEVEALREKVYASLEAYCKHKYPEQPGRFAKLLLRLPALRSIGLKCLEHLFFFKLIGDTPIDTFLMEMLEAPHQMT
T1 sequence (P43354 whole entry partner, the tested form may be a part): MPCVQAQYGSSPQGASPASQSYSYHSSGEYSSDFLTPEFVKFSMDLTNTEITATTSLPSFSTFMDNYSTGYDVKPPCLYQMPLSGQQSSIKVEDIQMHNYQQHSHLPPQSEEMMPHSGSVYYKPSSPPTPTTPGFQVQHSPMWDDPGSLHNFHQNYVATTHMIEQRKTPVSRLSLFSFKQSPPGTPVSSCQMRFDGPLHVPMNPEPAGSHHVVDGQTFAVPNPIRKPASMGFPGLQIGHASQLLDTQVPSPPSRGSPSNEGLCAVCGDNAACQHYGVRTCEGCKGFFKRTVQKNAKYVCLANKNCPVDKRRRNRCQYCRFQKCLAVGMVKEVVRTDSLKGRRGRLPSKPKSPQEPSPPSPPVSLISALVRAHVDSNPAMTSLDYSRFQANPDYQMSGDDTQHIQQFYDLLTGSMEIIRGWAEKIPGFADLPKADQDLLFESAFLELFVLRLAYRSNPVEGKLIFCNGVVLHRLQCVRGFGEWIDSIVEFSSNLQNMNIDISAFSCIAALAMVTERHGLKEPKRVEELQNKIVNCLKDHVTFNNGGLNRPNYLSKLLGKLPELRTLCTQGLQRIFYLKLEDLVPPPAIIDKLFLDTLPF
T1 sequence (P04386 1-147 partner limits assumed): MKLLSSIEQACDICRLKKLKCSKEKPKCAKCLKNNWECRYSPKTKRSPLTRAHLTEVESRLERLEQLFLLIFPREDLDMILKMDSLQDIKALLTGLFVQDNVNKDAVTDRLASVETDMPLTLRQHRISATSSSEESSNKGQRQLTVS

| SMILES | action of MPTP (decrease in dopamine level in the striatum and in TH expression level in the substantia nigra) [1] | Emax [2] [%] | EC50 [2] [nM] | AUC [3] [ng·h/mL] | Cmax [3] [ng/mL] | percentage of activity relative to the BDNF reference ([4]; compound 1 μM) [%] | percentage of activity relative to the BDNF reference ([4]; compound 10 μM) [%] | tyrosine hydroxylase (TH) expression level (mRNA, substantia nigra, quantitative PCR) ([1]; orally twice a day for 11 days, MPTP-treated mice) |
| --- | --- | --- | --- | --- | --- | --- | --- | --- |
| CC1(C)CCC(C)(C)c2cc(-c3cccc(N4CC(C(=O)O)C4)c3)ccc21 [Example 10, 1-[5-(1,1,4,4-tetrametyltetralin-6-yl)phenyl]azetidine-3-carboxylic acid] | decrease the action of MPTP in a dose-dependent manner | 84 | 8 | 25700 | 8760 | 44 | 74 |  |
| CC(C)CC1CN(c2cccc(N3CC(C(=O)O)C3)c2)c2ccc(C(F)(F)F)cc2O1 (stereo not drawn) [Example 118, 1-[3-[2-isobutyl-7-(trilfuoromethyl)-2,3-dihydro-1,4-benzoxazin-4-yl]phenyl]azetidine-3-carboxylic acid] | decrease the action of MPTP in a dose-dependent manner | 83 | 31 | 9820 | 4600 | 81 | 61 | capable of re-establishing the tyrosine hydroxylase expression level in the brain |
